Assay results: patent publication US6399614B1, “1-(N-phenylaminoalkyl)piperazine derivatives substituted at position 2 of the phenyl ring” (Recordati S.A. Chemical and Pharmaceutical Company, priority 1997, dated 2002)

biological target: T1, human 5-HT1A serotonergic receptor (Homo sapiens, UniProt P08908); assay: Radioreceptor binding, recombinant human 5-HT1A receptors ([3H]8-OH-DPAT, HeLa membranes); conditions: recombinant human receptor, [3H]8-OH-DPAT; Ki from IC50 by Cheng & Prusoff; read-out: Binding affinity for the 5-HT1A receptor, Ki
T1 construct: expressed in transfected cells; host or cells: HeLa
T1 sequence (P08908 1-422): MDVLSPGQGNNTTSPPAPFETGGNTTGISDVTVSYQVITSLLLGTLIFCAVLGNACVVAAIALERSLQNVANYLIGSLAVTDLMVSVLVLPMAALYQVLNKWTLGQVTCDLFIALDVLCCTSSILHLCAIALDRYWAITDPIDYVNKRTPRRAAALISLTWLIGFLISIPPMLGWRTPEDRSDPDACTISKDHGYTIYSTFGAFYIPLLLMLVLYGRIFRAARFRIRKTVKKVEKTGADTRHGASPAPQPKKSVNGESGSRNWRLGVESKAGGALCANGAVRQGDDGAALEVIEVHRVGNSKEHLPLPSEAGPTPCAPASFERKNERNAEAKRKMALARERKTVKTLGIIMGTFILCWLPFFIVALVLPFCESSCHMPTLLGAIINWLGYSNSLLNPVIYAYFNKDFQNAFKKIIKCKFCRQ
Experimental: Genomic clone G-21 coding for the human 5-HT1A serotonergic receptor is stably transfected in a human cell line (HeLa). HeLa cells were grown as monolayers in Dulbecco's modified Eagle's medium (DMEM), supplemented with 10% fetal calf serum and gentamicin ([…]), 5% CO2 at 37° C. Cells were detached from the growth flask at 95% confluence by a cell scraper and were lysed in ice-cold 5 mM Tris and 5 mM EDTA buffer (pH 7.4). Homogenates were centrifuged at 40000×g×20 min and pellets were resuspended in a small volume of ice-cold 5 mM Tris and 5 mM EDTA buffer (pH 7.4) and immediately frozen and stored at −70° C. until use. On the day of experiment, cell membranes were resuspended in binding buffer: 50 mM Tris HCl (pH 7.4), 2.5 mM MgCl2, 10 μM pargiline (Fargin et al., Nature 335, 358-360, 1988). Membranes were incubated in a final volume of 1 ml for 30 min at 30° C. with 0.2-1 nM [3H]8-OH-DPAT, in absence or presence of competing drugs; non-specific binding was determined in the presence of 10 μM 5-HT. The incubation was stopped by addition of ice-cold Tris-HCl buffer and rapid filtration through 0.2% polyethyleneimine pretreated Whatman GF/B or Schleicher & Schuell GF52 filters.
The inhibition of specific binding of the radioligands by the tested drugs was analyzed to estimate the IC50 value by using the non-linear curve-fitting program Allfit (De Lean et al., Am. J. Physiol. 235, E97-E102, 1978). The IC50 value was converted to an affinity constant (Ki) by the equation of Cheng & Prusoff (Cheng, Y. C.; Prusoff, W. H. Biochem. Pharmacol. 22, 3099-3108, 1973).

Structure (SMILES) | Ki [nM]
COc1ccccc1N1CCN(CCN(C(=O)C2(C)CCCCC2)c2ccccc2[N+](=O)[O-])CC1 [Example 39, 1-[N-(2-nitrophenyl)-N-(1-methylcyclohexylcarbonyl)-2-aminoethyl]-4-(2-methoxyphenyl)piperazine] | 2.65
COc1ccccc1N1CCN(C(C)CN(C(=O)C2CCCCC2)c2ccccc2[N+](=O)[O-])CC1 (centres unmarked) [Example 45, 1-[N-(2-nitrophenyl)-N-cyclohexylcarbonyl-1-amino-2-propyl]-4-(2methoxyphenyl)piperazine] | 2.21
COc1ccccc1N1CCN(CCN(C(=O)C2CCCCC2)c2ccccc2C(=O)OCc2ccccc2)CC1 [Example 49, 1-[N-cyclohexylcarbonyl-N-(2-benzyloxycarbonylphenyl)-2-aminoethyl]-4-(2-methoxyphenyl)piperazine] | 0.17
O=C(c1cnccn1)N(CCN1CCN(c2cccc3[nH]ccc23)CC1)c1ccccc1[N+](=O)[O-] [Example 53] | 11.7
COc1cc([N+](=O)[O-])ccc1N1CCN(CCN(C(=O)C2CCCCC2)c2ccccc2OCC(F)(F)F)CC1 [Example 65] | 18.6
COc1cc(NC(C)=O)ccc1N1CCN(CCN(C(=O)C2CCCCC2)c2ccccc2OCC(F)(F)F)CC1 [Example 67] | 4.76
COc1cc(NC(C)=O)ccc1N1CCN(CCN(C(=O)C2CCCCC2)c2ccccc2[N+](=O)[O-])CC1 [Example 70] | 28.1
O=C(C1CCCCC1)N(CCN1CCN(c2cccc3[nH]ccc23)CC1)c1ccccc1I [Example 76, 1-[N-cyclohexylcarbonyl-N-(2-iodophenyl)-2-aminoethyl]-4-(4-indolyl)piperazine] | 0.69
COc1ccc(Br)c(CN2CCN(CCN(C(=O)C3CCCCC3)c3ccccc3C#N)CC2)c1 [Example 83, 1-[N-(2-cyanophenyl)-N-cyclohexylcarbonyl-2-aminoethyl]-4-(2-bromo-5-methoxybenzyl)piperazine] | 1.31
O=C(C1CCCCC1)N(CCN1CCN(c2cccc3c2ccn3C(=O)C2CCCCC2)CC1)c1ccccc1OC(F)(F)F [Example 84, 1-[N-cyclohexylcarbonyl-N-(2-trifluoromethoxyphenyl)-2-aminoethyl]-4-(1-cyclohexylcarbonyl-4-indolyl)piperazine] | 23.2
CS(=O)(=O)Nc1ccccc1N(CCN1CCN(c2cccc3[nH]ccc23)CC1)C(=O)C1CCCCC1 [Example 88, 1-[N-cyclohexylcarbonyl-N-(2-methanesulphonylaminophenyl)-2-aminoethyl]-4-(4-indolyl)piperazine] | 1.03

Continued, values first:

Ki [nM] | Structure (SMILES)
19.4 | COc1ccccc1N1CCN(CCN(C(=O)c2ccoc2)c2ccccc2[N+](=O)[O-])CC1 [Example 32, 1-[N-(2-nitrophenyl)-N-(3-furylcarbonyl)-2-aminoethyl]-4-(2-methoxyphenyl)piperazine]
16.3 | COc1ccccc1N1CCN(CCN(C(=O)c2cccs2)c2ccccc2[N+](=O)[O-])CC1 [Example 34, 1-[N-(2-nitrophenyl)-N-(2-thiophenecarbonyl)-2-aminoethyl]-4-(2-methoxyphenyl)piperazine]
8 | COc1ccccc1N1CCN(CCN(C(=O)c2ccsc2)c2ccccc2[N+](=O)[O-])CC1 [Example 35, 1-[N-(2-nitrophenyl)-N-(3-thiophenecarbonyl)-2-aminoethyl]-4-(2-methoxyphenyl)piperazine]
1.02 | COc1ccccc1N1CCN(CCN(C(=O)c2cnccn2)c2ccccc2[N+](=O)[O-])CC1 [Example 38, 1-[N-(2-nitrophenyl)-N-(2-pyrazinylcarbonyl)-2-aminoethyl]-4-(2-methoxyphenyl)piperazine]
6.05 | COc1ccccc1N1CCN(CCN(C(=O)C2CCCCC2)c2ccccc2NS(C)(=O)=O)CC1 [Example 46, 1-[N-cyclohexylcarbonyl-N-(2-methanesulphonylaminophenyl)-2-aminoethyl]-4-(2-methoxyphenyl)piperazine]
1.16 | FC(F)(F)Oc1ccccc1NCCN1CCN(c2cccc3[nH]ccc23)CC1 [Example 50, 1-[N-(2-trifluoromethoxyphenyl)-2-aminoethyl]-4-(4-indolyl)piperazine]
34 | COc1ccccc1N1CCN(CC(C)Nc2ccccc2[N+](=O)[O-])CC1 (centres unmarked) [Example 52, 1-[N-(2-nitrophenyl)-2-aminopropyl]-4-(2-methoxyphenyl)piperazine]
10.8 | COc1cc([N+](=O)[O-])ccc1N1CCN(CCN(C(=O)C2CCCCC2)c2ccccc2OC(F)(F)F)CC1 [Example 55, 1-[N-cyclohexylcarbonyl-N-(2-trifluoromethoxyphenyl)-2-aminoethyl]-^4-(2-methoxy-4-nitrophenyl)piperazine]
2.44 | COc1cc(NC(=O)C(F)(F)F)ccc1N1CCN(CCN(C(=O)C2CCCCC2)c2ccccc2OC(F)(F)F)CC1 [Example 58, 1-[N-cyclohexylcarbonyl-N-(2-trifluoromethoxyphenyl)-2-aminoethyl]-4-(4-trifluoroacetylamino-2-methoxyphenyl)piperazine]
9.32 | FC(F)(F)COc1ccccc1NCCN1CCN(c2cccc3[nH]ccc23)CC1 [Example 68]
15.5 | FC(F)(F)Oc1ccccc1NCCN1CCN(c2ccccc2OC(F)(F)F)CC1 [Example 71, 1-[N-(2-trifluoromethoxyphenyl)-2-aminoethyl]-4-(2-trifluoromethoxyphenyl)piperazine]
1.22 | O=C(C1CCCCC1)N(CCN1CCN(c2ccccc2OC(F)(F)F)CC1)c1ccccc1OC(F)(F)F [Example 72, 1-[N-cyclohexylcarbonyl-N-(2-trifluoromethoxyphenyl)-2-aminoethyl]-4-(2-trifluoromethoxyphenyl)piperazine]
21.2 | COc1ccccc1N1CCN(CCN(C(=O)c2cncs2)c2ccccc2[N+](=O)[O-])CC1 [Example 73]
2.02 | COc1ccc(Br)c(CN2CCN(CCNc3ccccc3OC(F)(F)F)CC2)c1 [Example 74, 1-[N-(2-trifluoromethoxyphenyl)-2-aminoethyl]-4-(2-bromo-5-methoxybenzyl)piperazine]
0.58 | N#Cc1ccccc1N(CCN1CCN(c2ccccc2OC(F)(F)F)CC1)C(=O)C1CCCCC1 [Example 77, 1-[N-(2-cyanophenyl)-N-cyclohexylcarbonyl-2-aminoethyl]-4-(2-trifluoromethoxyphenyl)piperazine]
